Where “and” joins values, the source holds several entries; their conditions need not be identical. Identical values can stand only once. Like-named read-outs stand apart in the source and are kept apart here.
How the values were obtained:
[1] = tested on: B104 rat neuroblastoma cells; experiment: BDNF release in-situ ELISA in B104 neuroblastoma cells; type: cell-based; conditions: 5 days
Text: […]. Compound 4 alone had no effect on BDNF secretion—(1.5%). […]. Compound 4 alone had no effect on BDNF secretion (−1.5%). […].

[2] = target: Sigma-2 receptor (S2R) (Homo sapiens (Human), UniProt Q5BJF2); experiment: Sigma-2 receptor in-vitro binding assay
Sequence of Sigma-2 receptor (S2R) (Q5BJF2 whole entry, species assumed): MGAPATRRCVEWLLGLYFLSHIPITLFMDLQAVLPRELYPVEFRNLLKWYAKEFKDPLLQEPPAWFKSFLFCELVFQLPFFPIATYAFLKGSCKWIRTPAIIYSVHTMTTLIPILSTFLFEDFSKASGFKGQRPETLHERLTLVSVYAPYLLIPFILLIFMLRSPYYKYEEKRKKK

[3] = tested on: early HD patients; conditions: 45 mg bid
Description: Change from baseline in UHDRS TMS gait balances week 26 (A) and Week 52(B) in early HD (baseline TFC 7-13) patients in the PRIDE-HD study.
Change from baseline in UHDRS TMS gait and balances scale at weeks 26 and 52 in early HD (baseline TFC 7-13).

[4] = tested on: female MeCP2 heterozygous (Rett) mice; conditions: 30 mg/kg bid orally, 8 weeks of age
Description: Clasping is used to assess muscular strength in limb muscles. Hindlimb clasping is measured in mice held by the tail and gently lifted until the front paws just lift off the counter surface. The experimenter observes the legs and determines clasping or splaying of limbs. […] Data are mean±SEM, N-1 two-proportional tests.
(§1) Dosing commenced when mice were ˜5.5 weeks of age and continued through the end of behavioral testing. Behavioral testing was done at 8 and 12 weeks of age.
Mice were held by the tail and gently lifted until the front paws just lift off the counter surface. The experimenter observed the legs and determined clasping or splaying of limbs. After testing, animals were placed back into the test or home cage. Percent clasping of the hindlimbs was determined and reported.

[5] = tested on: B104 rat neuroblastoma cells; conditions: in-situ ELISA, Geva et al. 2016; cited from earlier work
[6] = tested on: B6.129P2-Mecp2tm2Bird/J (Rett-KO) male mice; conditions: 30 mg/kg bid
Description: The room temperature was maintained between 20 and 23° C. with a relative humidity maintained around 50%. Chow and water were provided ad libitum for the duration of the study.

[7] = tested on: Rett disease gene expression signature
[8] = tested on: female MeCP2 heterozygous (Rett) mice; conditions: for Recovery of overall gait features: female Rett mice, 30 mg/kg bid
Description: FIG. 1: Feature recovery as a measure of the therapeutic drug effect on Mecp2-KO Rett Syndrome model mice. This figure is intended to provide an explanation as to how the data is analyzed in FIGS. 4, 5 and 12.
Left: “the cloud graph”: Visualization of the control−disease−(disease+treatment) groups relationship in the optimal discrimination feature space.
The drug treatment effect can be represented as a combination of two components: one along the direction of the “recovery line” (the line connecting the centers of the control (WT) and disease (MECP2-KO) clouds, shown as a thick arrow to the left with diagonal lines on top), and the component orthogonal to (“pointing away” from) that direction shown as an arrow pointing up with parallel lines within. The relative length of the “recovery” arrow with respect to the control-disease distance can then be interpreted as the “recovery due to the drug”, whereas the relative length of the “other effect” (orthogonal with parallel lines inside) arrow represents feature changes that move the disease mice+treatment group away from the control group. The summary of this analysis can be effectively represented as a bar graph (right pane in FIG. 1A) which is typically referred to as the recovery signature.
Right: “the recovery signature” graph: The bar graph represents the summary of the recovery analysis. The overlap and discrimination probability sum up to 100%. The recovery ranges from […]. The lower the overlap, the better the quality of the disease model, and the higher the discrimination power between the WT and Rett mice groups. The “other behavioral effect” is in the same relative units (relative to the length of the distance between the WT and Rett mice groups).
The NeuroCube® system is a platform that employs computer vision to detect changes in gait geometry and gait dynamics in rodent models of neurological disorders, pain & neuropathies. This platform is unique for gait testing for the following reasons: • It is completely automated and thus removes any bias or subjectivity • This system captures both gait geometry and gait dynamics (stance, swing, propulsion, etc.)
Mice were placed in the NeuroCube for a 5 min test. The most dominant of the features collected that define the disease phenotype (symptom descriptors) was identified and ranked. Complex bioinformatic algorithms were employed to calculate the discrimination probability between the WT and the Rett HET MeCP2 mice and detect a test compound's ability to reverse the disease phenotype. Discriminations between mutant and wild type was calculated as well as the recovery of disease features in Rett HET MeCP2 mice treated with the test compound.
The output of NeuroCube is a set of dozens of behavioral features that are submitted for analysis with machine learning techniques used in bioinformatics. Many of these features are correlated (e.g. rearing counts and supported rearing counts). Therefore, PGI forms statistically independent combinations of the original features (further referred to as de-correlated features) that discriminate between the two groups more effectively.
Each de-correlated feature extracts information from the whole cluster of the original features, so the new feature space has lower dimensionality. Next, PGI applies a proprietary feature ranking algorithm to score each feature's discrimination power (ability to separate the two groups, e.g. control and disease).
Ranking is an important part of the analyses because it weighs each feature change by its relevance: if there is a significant change in some irrelevant feature measured for a particular phenotype, the low rank of this feature will automatically reduce the effect of such change in the analyses, so there is no need to resort to the conventional “feature selection” approach and discard information buried in the less informative features.

[9] = tested on: BDNF transcripts (BDNF I, IV, VI, IX) mRNA; conditions: whole brain, Rett mice
Text: FIGS. 6A-6C, 7, 8, 9, 10: These figures display mRNA levels of BDNF transcripts measured in the brains of female heterozygous MeCP2 (Rett) mice. […] The relative quantity of the gene target is normalized to the geometric means of the relative quantity of the housekeeping genes APT5B, GAPDH and RPK12A. Relative level of the target gene was then normalized to the WT vehicle group. All data are represented as the mean±SEM. ANOVA followed by Tukey's multiple comparisons test.
Mice were euthanized via cervical dislocation and decapitated. From 10 mice/treatment group, whole brains were collected, weighed, and then frozen on dry ice. Samples were stored at −80° C. until analysis of brain-derived neurotrophic factor (BDNF).
Tissues (whole brain) were homogenized, and RNA extracted and quantified. An aliquote was reverse-transcribed into cDNA.
Up to three independent RT reactions were performed for each RNA sample. qPCR was performed using the primers detailed in Table 5 below.
Whole brain cDNA prepared from a pooled sample of WT vehicle treated animals was used as calibrator (calibrator is diluted same as sample cDNA) to normalized plate-to-plate variations. Each cDNA sample (diluted 1:10) was assayed in triplicates and the Ct values averaged.
Relative quantity of the PCR product (relative to the calibrator) was calculated as follows:
Relative Quantity of Target gene=(PCR EfficiencyTarget)^(Ct caltbrator-Ctsample)
Geometric mean=(relative quantity of housekeeping gene1*relative quantity of housekeeping gene2*relative quantity of housekeeping gene3)^(1/3)
Relative Quantity of Target gene Geometric mean of housekeeping genes
Relative level of target gene was then normalized to the WT vehicle group.

[10] = tested on: female MeCP2 heterozygous (Rett) mice; conditions: 3 mg/kg bid
Description: as §1
Mice were placed in the PPI chambers (Med Associates) for a 5 min session of white noise (70 dB) habituation.
The inter-trial interval was variable with an average of 15 s (range from 10 to 20 s).

[11] = tested on: cultured cortical neurons from the HD YAC128 mouse model; conditions: Smith-Dijak et al., 2019; cited from earlier work

CCCN1CCC(O)(c2cccc(S(C)(=O)=O)c2)CC1 [Compound 1]
Increase in BDNF release vs untreated control ([1]; Compound 1 alone 1 μM): 12.5%
S1R fold selectivity (S2R/S1R) [2]: >270 fold

CCCN1CC[C@@H](c2cccc(S(C)(=O)=O)c2)[C@@H](O)C1 [Compound 4]
S1R fold selectivity (S2R/S1R) [2]: >35 fold

CCCN1CCC(c2cccc(S(C)(=O)=O)c2)CC1 [Pridopidine, 4-[3-(methylsulfonyl)phenyl]-1-propyl-piperidine]
Increase in BDNF release vs untreated control ([1]; pridopidine alone 0.001 μM): 13.6% and 13.5%
Increase in BDNF release vs untreated control ([1]; pridopidine alone 0.005 μM): 26%
Increase in BDNF release vs untreated control ([1]; pridopidine alone 0.01 μM ([…] in FIG. 17 legend)): 3.4%
UHDRS TMS gait and balance, Δ from placebo ([3]; HD1 (TFC 11-13), Week 26): −0.31
UHDRS TMS gait and balance, Δ from placebo ([3]; HD1 (TFC 11-13), Week 52): −0.94
UHDRS TMS gait and balance, Δ from placebo ([3]; HD2 (TFC 7-10), Week 26): −0.53
UHDRS TMS gait and balance, Δ from placebo ([3]; HD2 (TFC 7-10), Week 52): −0.18
UHDRS TMS gait and balance, Δ from placebo ([3]; early HD (TFC 7-13), Week 26): −0.48
UHDRS TMS gait and balance, Δ from placebo ([3]; early HD (TFC 7-13), Week 52): −0.41
Percent clasping of the hindlimbs [4]: zero
Percent clasping of the hindlimbs ([4]; listed as pridopidine): 0%
BDNF secretion in rat neuroblastoma cells [5]: dose dependent increase
Recovery of gait deficits ([6]; 6 weeks of age): 44%
Recovery of gait deficits ([6]; 7 weeks of age): 100%
NES (normalized enrichment score), genes downstream to BDNF ([7]; 30 mg/kg BID, BDNF-TrkB pathway genes): 1.752
NES (normalized enrichment score) ([7]; cortex, 3 mg/kg BID, geneset Prido Down / Rett Up): 1.356
NES (normalized enrichment score) ([7]; cortex, 3 mg/kg BID, geneset Prido Up / Rett Down): 1.477
NES (normalized enrichment score) ([7]; cortex, 30 mg/kg BID, geneset Prido Down / Rett Up): 2.081
NES (normalized enrichment score) ([7]; cortex, 30 mg/kg BID, geneset Prido Up / Rett Down): −2.631
Reversal of Rett gene expression pattern ([7]; striatum and cortex of Rett mice, GSEA): strongly reverses
NES (normalized enrichment score) ([7]; striatum, 3 mg/kg BID, geneset Down with Prido / Up in Rett): 2.18
NES (normalized enrichment score) ([7]; striatum, 3 mg/kg BID, geneset Up with Prido / Down in Rett): −2.50
NES (normalized enrichment score) ([7]; striatum, 30 mg/kg BID, geneset Up with Prido / Down in Rett): −1.77
% Recovery 3 mg/kg BID, Body Motion ([8]; 8 weeks, 3 mg/kg BID): 81%,
% Recovery 3 mg/kg BID, Gait ([8]; 8 weeks, 3 mg/kg BID): 38%,
% Recovery 30 mg/kg BID, Body Motion ([8]; 8 weeks, 30 mg/kg BID): 84%,
% Recovery 30 mg/kg BID, Gait ([8]; 8 weeks, 30 mg/kg BID): 71%,
% Recovery 3 mg/kg BID, Body Motion ([8]; 12 weeks, 3 mg/kg BID): 65%,
% Recovery 3 mg/kg BID, Gait ([8]; 12 weeks, 3 mg/kg BID): 60%,
% Recovery 3 mg/kg BID, Paw Positioning ([8]; 12 weeks, 3 mg/kg BID): 35%,
% Recovery 30 mg/kg BID, Body Motion ([8]; 12 weeks, 30 mg/kg BID): 59%,
% Recovery 30 mg/kg BID, Gait ([8]; 12 weeks, 30 mg/kg BID): 100%,
% Recovery 30 mg/kg BID, Paw Positioning ([8]; 12 weeks, 30 mg/kg BID): 52%,
Recovery of overall gait features ([8]; 8 weeks of age): 45%
Recovery of overall gait features ([8]; 12 weeks of age): 55%
Increase of BDNF IV mRNA levels ([9]; 3 mg/kg bid and 30 mg/kg bid): ~30%
Effect on mRNA expression of housekeeping genes ATP5B, GAPDH, RPL13A ([9]; 3 and 30 mg/kg bid): does not affect
Effect on BDNF I mRNA levels ([9]; 3 or 30 mg/kg bid): does not affect
Effect on BDNF VI mRNA levels ([9]; 3 or 30 mg/kg bid): does not affect
Rescue effect on mean startle response ([10]; 8 weeks of age): ~40%
Rescue effect on mean startle response ([10]; 12 weeks of age): ~50%
Impaired homeostatic synaptic plasticity (HSP) [11]: restores impaired HSP

— patent publication US20230414596A1 (PRILENIA NEUROTHERAPEUTICS LTD., priority 2020, published 2023)
